Experimental data from patent publication US8673929B2, “4,6-di- and 2,4,6-trisubstituted quinazoline derivatives and pharmaceutical compositions useful for treating viral infections” (priority 2006, dated 2014).

How the values were obtained:
[1] = CC50 assay in the anti-HCV replicon assay (CellTiter-Glo); format: cell-based, human; conditions: human, Huh-7 hepatoma cells harbouring an HCV replicon; Huh-7 HCV replicon cells, 3 days incubation, CellTiter-Glo luminescence
Procedure, shortened: (§1)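 Huh-7 cells harbouring an HCV replicon (6000/well) incubated 3 days at 37° C with 3-fold serially diluted compound (0.5% DMSO final where used). EC50 from luciferase luminescence of lysed cells; CC50 from CellTiter-Glo luminescence in parallel plates.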

[2] = system: HCV replicon; assay: Anti-HCV replicon assay, EC50 (luciferase readout); format: cell-based; conditions: Hepatitis C virus, 72 h; Huh-7 HCV replicon cells, 3 days incubation, luciferase luminescence
Procedure, shortened: as §1

Structure (SMILES) | CC50 at 3 days [1] [µM] | EC50 [2] [µM]
CNC(=O)c1ccc(-c2ccc3nc(N)nc(OCCF)c3c2)cc1Cl [Example 207, 4-[2-Amino-4-(2-fluoro-ethoxy)-quinazolin-6-yl]-2-chloro-N-methyl-benzamide] | > 20 | 1 to 10
Nc1nc(O[C@@H]2CCOC2)c2cc(-c3ccc(C(=O)NCCCN4CCCC4)cc3)ccc2n1 [Example 220, (R)-4-[2-Amino-4-(tetrahydro-furan-3-yloxy)-quinazolin-6-yl]-N-(3-pyrrolidin-1-yl-propyl)-benzamide] | < 10 | < 0.3
CCOc1nc(N)nc2ccc(-c3ccc(F)cc3)cc12 [Example 19, 2-amino-4-ethoxy-6-(4-fluorophenyl)-quinazoline] | > 20 | 1 to 10
Nc1nc(OCCN2CCOCC2)c2cc(-c3ccccc3C(F)(F)F)ccc2n1 [Example 241, 4-(2-Morpholin-4-yl-ethoxy)-6-(2-trifluoromethyl-phenyl)-quinazolin-2-ylamine] | > 20 | 1 to 10
CN(C)CCCOc1nc(N)nc2ccc(-c3cc4ccccc4o3)cc12 [Example 227, 6-benzofuran-2-yl-4-(3-dimethylaminopropoxy)-quinazolin-2-ylamine] | > 20 | 1 to 10
CCOc1nc(N)nc2ccc(-c3ccc(N)cc3)cc12 [Example 49, 6-(4-Amino-phenyl)-4-ethoxy-quinazolin-2-ylamine] | > 20 | 1 to 10
Nc1nc(OCC2CCC2)c2cc(-c3ccc(C(F)(F)F)cc3Cl)ccc2n1 [Example 124] | > 20 | 1 to 10
CC(C)Oc1ncnc2ccc(-c3ccsc3)cc12 [Example 244, 4-isopropoxy-6-thiophen-3-yl-quinazoline] | > 20 | 1 to 10
Nc1nc(OCC2CCC2)c2cc(-c3ccc(Cl)cc3Cl)ccc2n1 [Example 108, 4-Cyclobutylmethoxy-6-(2,4-dichloro-phenyl)-quinazolin-2-ylamine] | > 20 | 1 to 10
CCCc1ncnc2ccc(-c3ccc(F)cc3)cc12 [Example 259, 6-(4-Fluoro-phenyl)-4-propyl-quinazoline] | > 20 | 1 to 10
CNC(=O)c1ccc(-c2ccc3nc(N)nc(OCCF)c3c2)cc1 [Example 212, 4-[2-Amino-4-(2-fluoro-ethoxy)-quinazolin-6-yl]-N-methyl-benzamide] | > 20 | 1 to 10
CC(C)Oc1nc(N)nc2ccc(-c3cc4ccccc4o3)cc12 [Example 86, 6-Benzofuran-2-yl-4-isopropoxy-quinazolin-2-ylamine] | > 20 | 0.3 to 1
Cc1cc(C)cc(-c2ccc3nc(N)nc(OCCCN(C)C)c3c2)c1 [Example 231, 4-(3-Dimethylamino-propoxy)-6-(3,5-dimethyl-phenyl)-quinazolin-2-ylamine] | > 20 | 1 to 10
CC(C)Oc1nc(N)nc2ccc(-c3ccncc3)cc12 [Example 92, 4-Isopropoxy-6-pyridin-4-yl-quinazolin-2-ylamine] | 10 to 20 | 0.3 to 1
CC(C)(CN1CCOCC1)NC(=O)c1ccc(-c2ccc3nc(N)nc(O[C@@H]4CCOC4)c3c2)cc1 [Example 222, (R)-4-[2-Amino-4-(tetrahydro-furan-3-yloxy)-quinazolin-6-yl]-N-(1,1-dimethyl-2-morpholin-4-yl-ethyl)-benzamide] | > 20 | < 0.3
CC(C)Oc1nc(N)nc2ccc(-c3ccc(N)cc3)cc12 [Example 96, 6-(4-Amino-phenyl)-4-isopropoxy-quinazolin-2-ylamine] | > 20 | 0.3 to 1
CC(C)Oc1nc(N)nc2ccc(-c3ccc(F)cc3F)cc12 [Example 74, 6-(2,4-Difluoro-phenyl)-4-isopropoxy-quinazolin-2-ylamine] | 10 to 20 | 1 to 10
Nc1nc(OCCF)c2cc(-c3cccc(O)c3)ccc2n1 [Example 210, 3-[2-Amino-4-(2-fluoro-ethoxy)-quinazolin-6-yl]-phenol] | > 20 | 1 to 10
CC(C)Oc1nc(N)nc2ccc(-c3ccccc3OCc3ccccc3)cc12 [Example 98, 6-(2-Benzyloxy-phenyl)-4-isopropoxy-quinazolin-2-ylamine] | < 10 | 1 to 10
CC(C)NC(=O)c1ccc(-c2ccc3nc(N)nc(OCCF)c3c2)cc1 [Example 202, 4-[2-Amino-4-(2-fluoro-ethoxy)-quinazolin-6-yl]-N-isopropyl-benzamide] | > 20 | 1 to 10
Nc1nc(OCCF)c2cc(-c3ccc(C(=O)NC4CC4)cc3)ccc2n1 [Example 211, 4-[2-Amino-4-(2-fluoro-ethoxy)-quinazolin-6-yl]-N-cyclopropyl-benzamide] | > 20 | 0.3 to 1

Structure (SMILES) | CC50 at 3 days [1] [µM] | EC50 [2] [µM]
Nc1nc(OCC2CCC2)c2cc(-c3ccc(F)c(Cl)c3)ccc2n1 [Example 112, 4-Cyclobutylmethoxy-6-(3-chloro-4-fluoro-phenyl)-quinazolin-2-ylamine] | > 20 | 1 to 10
CC(C)Oc1nc(N)nc2ccc(-c3cccc(Cl)c3)cc12 [Example 82, 6-(3-Chloro-phenyl)-4-isopropoxy-quinazolin-2-ylamine] | > 20 | 1 to 10
CC(C)Oc1nc(N)nc2ccc(-c3cccc(C(F)(F)F)c3)cc12 [Example 76, 4-Isopropoxy-6-(3-trifluoromethyl-phenyl)-quinazolin-2-ylamine] | > 20 | 1 to 10
CCOc1nc(N)nc2ccc(-c3ccc(C)cc3)cc12 [Example 39, 4-Ethoxy-6-p-tolyl-quinazolin-2-ylamine] | > 20 | 1 to 10
Nc1nc(OCCO)c2cc(-c3ccc(O)cc3)ccc2n1 [Example 193, 4-[2-Amino-4-(2-hydroxy-ethoxy)-quinazolin-6-yl]-phenol] | > 20 | 1 to 10
CC(C)(CN1CCCC1)NC(=O)c1ccc(-c2ccc3nc(N)nc(O[C@@H]4CCOC4)c3c2)cc1 [Example 223, (R)-4-[2-Amino-4-(tetrahydro-furan-3-yloxy)-quinazolin-6-yl]-N-(1,1-dimethyl-2-pyrrolidin-1-yl-ethyl)-benzamide] | < 10 | < 0.3
CC(C)Oc1nc(N)nc2ccc(-c3ccc(Cl)cc3)cc12 [Example 78, 4-Isopropoxy-6-(4-chloro-phenyl)-quinazolin-2-ylamine] | > 20 | 1 to 10
Nc1nc(OCCF)c2cc(-c3ccc(C(=O)NC4=NCCS4)cc3)ccc2n1 [Example 206, 4-[2-Amino-4-(2-fluoro-ethoxy)-quinazolin-6-yl]-N-(4,5-dihydro-thiazol-2-yl)-benzamide] | > 20 | 1 to 10
Nc1nc(OCCF)c2cc(-c3ccc(C(=O)N4CCSC4)cc3)ccc2n1 [Example 204, {4-[2-Amino-4-(2-fluoro-ethoxy)-quinazolin-6-yl]-phenyl}-thiazolidin-3-yl-methanone] | > 20 | 1 to 10
Nc1nc(OCCF)c2cc(-c3ccc(C(=O)NC4CC4)c(Cl)c3)ccc2n1 [Example 208, 4-[2-Amino-4-(2-fluoro-ethoxy)-quinazolin-6-yl]-2-chloro-N-cyclopropyl-benzamide] | > 20 | 1 to 10
CCOc1nc(NCc2ccc(S(N)(=O)=O)cc2)nc2ccc(-c3ccc(NC(=O)N4CCCC4)cc3)cc12 [Example 253, pyrrolidine-1-carboxylic acid {4-[4-ethoxy-2-(4-sulfamoyl-benzylamino)-quinazolin-6-yl]-phenyl}-amide] | 10 to 20 | < 0.3
CC(=O)Nc1ccc(-c2ccc3nc(N)nc(OCC4CC4)c3c2)cc1 [Example 31, 2-amino-6-(4-acetamidophenyl)-4-(cyclopropyl-methoxy)-quinazoline] | > 20 | 0.3 to 1
COCCOc1nc(N)nc2ccc(-c3ccc(N)cc3)cc12 [Example 65, 6-(4-Amino-phenyl)-4-(2-methoxy-ethoxy)-quinazolin-2-ylamine] | > 20 | 1 to 10
CC(C)(C)NC(=O)c1ccc(-c2ccc3nc(N)nc(OCCF)c3c2)cc1 [Example 200, 4-[2-Amino-4-(2-fluoro-ethoxy)-quinazolin-6-yl]-N-tert-butyl-benzamide] | > 20 | 1 to 10
CONC(=O)c1ccc(-c2ccc3nc(N)nc(OC(C)C)c3c2)cc1 [Example 177, 4-(2-Amino-4-isopropoxy-quinazolin-6-yl)-N-methoxy-benzamide] | 10 to 20 | < 0.3
CC(C)Oc1nc(N)nc2ccc(-c3cccnc3)cc12 [Example 90, 4-Isopropoxy-6-pyridin-3-yl-quinazolin-2-ylamine] | > 20 | 0.3 to 1
Nc1nc(OCCF)c2cc(-c3ccc(C(=O)N4CCCCC4)cc3)ccc2n1 [Example 196, {4-[2-Amino-4-(2-fluoro-ethoxy)-quinazolin-6-yl]-phenyl}-piperidin-1-yl-methanone] | > 20 | 1 to 10
COCCOc1nc(N)nc2ccc(-c3ccc(F)cc3)cc12 [Example 20, 2-amino-6-(4-fluorophenyl)-4-(2-methoxyethoxy)-quinazoline] | 10 to 20 | 1 to 10
Nc1nc(OCC2CCC2)c2cc(-c3cc4ccccc4o3)ccc2n1 [Example 114, 6-Benzofuran-2-yl-4-cyclobutylmethoxy-quinazolin-2-ylamine] | 10 to 20 | 1 to 10
Nc1nc(OCC2CCC2)c2cc(-c3ccc(F)cc3F)ccc2n1 [Example 102, 4-Cyclobutylmethoxy-6-(2,4-difluoro-phenyl)-quinazolin-2-ylamine] | < 10 | 1 to 10
Nc1nc(OCc2ccccc2)c2cc(-c3ccn[nH]3)ccc2n1 [Example 70, 4-Benzyloxy-6-(2H-pyrazol-3-yl)-quinazolin-2-ylamine] | 10 to 20 | 1 to 10
